Literature values as cited in patent US20130315977A1, “TRANSDERMAL PATCH” (priority 2011, published 2013).

Key:
[1] = test system: serotonin 5-HT2 receptor; conditions: as compared to haloperidol
[2] = biological target: dopamine D2 (Homo sapiens, UniProt P14416); conditions: as compared to haloperidol
Chain of dopamine D2 (P14416 whole entry): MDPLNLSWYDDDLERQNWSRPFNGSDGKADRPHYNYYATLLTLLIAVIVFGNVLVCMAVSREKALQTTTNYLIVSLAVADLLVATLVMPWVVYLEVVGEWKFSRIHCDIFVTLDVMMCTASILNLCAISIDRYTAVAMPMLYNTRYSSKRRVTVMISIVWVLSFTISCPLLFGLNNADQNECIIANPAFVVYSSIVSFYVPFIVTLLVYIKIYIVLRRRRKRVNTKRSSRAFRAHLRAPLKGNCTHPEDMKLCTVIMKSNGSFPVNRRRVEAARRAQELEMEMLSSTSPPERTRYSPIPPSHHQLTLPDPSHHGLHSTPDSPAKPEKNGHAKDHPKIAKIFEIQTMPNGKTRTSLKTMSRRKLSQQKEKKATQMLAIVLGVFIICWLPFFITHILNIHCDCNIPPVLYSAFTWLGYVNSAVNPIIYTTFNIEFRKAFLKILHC

## CCN1CCN(c2cc(-c3ccc(F)cc3)c3c(n2)CCCCCC3)CC1 [Blonanserin, 2-(4-ethyl-1-piperazinyl)-4-(4-fluorophenyl)-5,6,7,8,9,10-hexahydrocycloocta[b]pyridine]
[1]
  affinity for serotonin 5-HT2 receptor: high affinity
[2]
  affinity for dopamine D2: high affinity
